In brackets after ≈: the same amount, converted by molar mass. Several values for one entry are separate records, joined by “and”; a condition that tells them apart may be missing. Equal entries are not always repeated. Where two headings read alike, the source gives them in different places.
What was measured:
PAM4186 producing CMY-2 = assay: MIC, engineered isogenic strain; assay type: cell-based, P. aeruginosa; conditions: CMY-2, class C; BLIs at fixed 4 µg/mL
[1] = tested on: PAM4743 producing CTX-M-15; assay: MIC, engineered isogenic strain; assay type: cell-based, P. aeruginosa; conditions: CTX-M-15, class A; BLIs at fixed 4 µg/mL
PAM4908 producing VEB-1 = assay: MIC, engineered isogenic strain; assay type: cell-based, P. aeruginosa; conditions: VEB-1, class A; BLIs at fixed 4 µg/mL
PAM4890 producing IMP-19 = assay: MIC, engineered isogenic strain; assay type: cell-based, P. aeruginosa; conditions: IMP-19, class B; BLIs at fixed 4 µg/mL
PAM4135 producing KPC-2 = assay: MIC, engineered isogenic strain; assay type: cell-based, P. aeruginosa; conditions: KPC-2, class A; BLIs at fixed 4 µg/mL
PAM4883 producing GIM-1 = assay: MIC, engineered isogenic strain; assay type: cell-based, P. aeruginosa; conditions: GIM-1, class B; BLIs at fixed 4 µg/mL
[2] = tested on: carbapenem-resistant Enterobacterales (subset of 507 isolates); assay: organism not typed; assay type: cell-based; conditions: xeruborbactam and vaborbactam fixed 8 mg/L, all other BLIs 4 mg/L; for MIC50: read-out: MIC50; for MIC90: read-out: MIC90
PAM4744 producing SME-2 = assay: MIC, engineered isogenic strain; assay type: cell-based, P. aeruginosa; conditions: SME-2, class A; BLIs at fixed 4 µg/mL
[3] = tested on: PAM4840 producing OXY-6–2; assay: MIC, engineered isogenic strain; assay type: cell-based, P. aeruginosa; conditions: OXY-6–2, class A; BLIs at fixed 4 µg/mL
[4] = tested on: ESBL-producing Enterobacterales; assay: organism not typed; assay type: cell-based; conditions: for MIC50: read-out: MIC50; for MIC90: read-out: MIC90
PAM4827 producing OXA-1 = assay: MIC, engineered isogenic strain; assay type: cell-based, P. aeruginosa; conditions: OXA-1, class D; BLIs at fixed 4 µg/mL
PAM4745 producing P99 = assay: MIC, engineered isogenic strain; assay type: cell-based, P. aeruginosa; conditions: P99, class C; BLIs at fixed 4 µg/mL
[5] = tested on: PAM4884 producing ADC-181; assay: MIC, engineered isogenic strain; assay type: cell-based, P. aeruginosa; conditions: ADC-181, class C; BLIs at fixed 4 µg/mL
PAM4792 producing OXA-2 = assay: MIC, engineered isogenic strain; assay type: cell-based, P. aeruginosa; conditions: OXA-2, class D; BLIs at fixed 4 µg/mL
PAM4175 (no β-lactamase) = assay: MIC, engineered isogenic strain; assay type: cell-based, P. aeruginosa; conditions: BLIs at fixed 4 µg/mL
PAM4179 producing NDM-1 = assay: MIC, engineered isogenic strain; assay type: cell-based, P. aeruginosa; conditions: NDM-1, class B; BLIs at fixed 4 µg/mL
VIM-1 (lysate of KP1015) = target: T1, VIM-1 (lysate of KP1015) (Pseudomonas aeruginosa, UniProt A0A0F7KYQ8); assay: IC50 of β-lactamase inhibition (imipenem cleavage) in cell lysates; assay type: biochemical, K. pneumoniae
T1 construct: endogenous in cells; host or cells: K. pneumoniae KP1015

PDC1 = PDC1 (Pseudomonas aeruginosa, UniProt P24735); assay: Ki app of β-lactamase inhibition, purified enzyme; assay type: biochemical; conditions: 10-minute preincubation; nitrocefin substrate
Procedure: (§1) The majority of purified β-lactamase enzymes used in the study were either expressed and purified internally ([35]) or obtained from Emerald Biostructures (Bainbridge Island, WA, USA). L1 enzyme was purified as described in reference ([36]).
(§2) Enzymes were mixed with BLIs at concentrations varying from 160 to 0.0027 µM in 50-mM Na-phosphate pH7.0, 0.1-mg/mL bovide serum albumin (BSA) (buffer A; 20-µM ZnCl2 was also added for all metalloenzymes) and incubated for 10 minutes at 37°C. Nitrocefin (50 µM) (10 µM for SHV-12) or 100 µM of imipenem (prewarmed at 37°C for 10 minutes) was added, and substrate cleavage profiles were recorded at 37°C at 490 nm every 10 seconds for 10 minutes or at 294 nm every 30 seconds for 1 hour for nitrocefin and imipenem, respectively. […] Ki app values (Ki for metalloenzymes) were calculated by the method of Waley ([37]).

CTX-M-14 = CTX-M-14 (Escherichia coli, UniProt Q9L5C7); assay: Ki app of β-lactamase inhibition, purified enzyme; assay type: biochemical; conditions: 10-minute preincubation; nitrocefin substrate
Procedure: as §1, §2

P99 = P99 (Enterobacter cloacae, UniProt P05364); assay: Ki app of β-lactamase inhibition, purified enzyme; assay type: biochemical; conditions: 10-minute preincubation; nitrocefin substrate; read-out: Ki app
Procedure: as §1, §2

OXA-23 = OXA-23 (Acinetobacter baumannii, UniProt Q9L4P2); assay: Ki app of β-lactamase inhibition, purified enzyme; assay type: biochemical; conditions: 10-minute preincubation; nitrocefin substrate
Procedure: as §1, §2

CTX-M-15 = CTX-M-15 (Escherichia coli, UniProt Q9EXV5); assay: Ki app of β-lactamase inhibition, purified enzyme; assay type: biochemical; conditions: 10-minute preincubation; nitrocefin substrate
Procedure: as §1, §2

P99, sequence (P05364 21-381): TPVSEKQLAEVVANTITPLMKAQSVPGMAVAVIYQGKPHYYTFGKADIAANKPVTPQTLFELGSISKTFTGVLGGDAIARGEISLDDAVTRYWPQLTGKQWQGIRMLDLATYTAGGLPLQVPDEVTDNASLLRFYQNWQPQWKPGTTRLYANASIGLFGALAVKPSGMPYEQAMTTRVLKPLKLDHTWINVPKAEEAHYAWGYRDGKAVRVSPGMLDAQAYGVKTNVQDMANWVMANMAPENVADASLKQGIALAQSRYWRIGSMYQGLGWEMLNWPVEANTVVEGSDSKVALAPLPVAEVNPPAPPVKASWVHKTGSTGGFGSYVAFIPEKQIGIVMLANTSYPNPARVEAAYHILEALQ
PDC1, sequence (P24735 27-397): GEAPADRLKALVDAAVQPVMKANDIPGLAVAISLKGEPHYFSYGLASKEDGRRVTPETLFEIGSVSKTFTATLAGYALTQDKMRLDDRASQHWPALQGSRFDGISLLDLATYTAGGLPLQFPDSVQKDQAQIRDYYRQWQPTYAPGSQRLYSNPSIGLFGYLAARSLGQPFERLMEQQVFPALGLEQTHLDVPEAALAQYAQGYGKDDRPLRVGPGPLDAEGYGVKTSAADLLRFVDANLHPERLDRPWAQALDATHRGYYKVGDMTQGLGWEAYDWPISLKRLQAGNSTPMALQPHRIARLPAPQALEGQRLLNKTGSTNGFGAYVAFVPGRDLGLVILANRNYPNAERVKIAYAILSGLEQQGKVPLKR
OXA-23, sequence (Q9L4P2 18-273): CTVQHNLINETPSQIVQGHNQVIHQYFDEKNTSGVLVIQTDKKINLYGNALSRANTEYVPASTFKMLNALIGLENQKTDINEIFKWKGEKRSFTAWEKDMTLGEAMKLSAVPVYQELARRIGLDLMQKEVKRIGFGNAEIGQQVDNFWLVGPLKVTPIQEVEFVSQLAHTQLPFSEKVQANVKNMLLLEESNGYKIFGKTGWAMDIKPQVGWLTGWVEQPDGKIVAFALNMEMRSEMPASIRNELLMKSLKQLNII
CTX-M-15, sequence (Q9EXV5 entry or part of it): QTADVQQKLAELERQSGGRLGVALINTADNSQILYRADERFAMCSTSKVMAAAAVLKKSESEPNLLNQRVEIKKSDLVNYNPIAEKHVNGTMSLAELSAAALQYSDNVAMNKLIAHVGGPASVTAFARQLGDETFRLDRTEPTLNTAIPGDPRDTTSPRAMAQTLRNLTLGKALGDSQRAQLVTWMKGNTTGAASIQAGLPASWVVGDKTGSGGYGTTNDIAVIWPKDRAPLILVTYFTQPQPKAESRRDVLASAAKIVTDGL
CTX-M-14, sequence (Q9L5C7 entry or part of it): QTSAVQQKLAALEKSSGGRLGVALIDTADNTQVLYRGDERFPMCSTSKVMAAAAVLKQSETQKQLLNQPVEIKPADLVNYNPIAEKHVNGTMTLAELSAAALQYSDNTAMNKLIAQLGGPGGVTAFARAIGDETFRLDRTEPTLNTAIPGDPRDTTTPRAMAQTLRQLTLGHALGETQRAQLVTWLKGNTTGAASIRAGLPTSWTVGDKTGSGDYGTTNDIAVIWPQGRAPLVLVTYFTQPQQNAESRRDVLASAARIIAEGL

`CO/N=C(\C(=O)N[C@@H]1C(=O)N2C(C(=O)[O-])=C(C[N+]3(C)CCCC3)CS[C@H]12)c1csc(N)n1` [FEP, cefepime] was tested, and the MIC (PAM4186 producing CMY-2) was 1 µg/mL (≈ 2.08 µM), the MIC [1] was > 64 µg/mL and the MIC (PAM4908 producing VEB-1) was > 64 µg/mL. For the same molecule, the MIC (PAM4890 producing IMP-19) was 64 µg/mL (≈ 133 µM), the MIC (PAM4135 producing KPC-2) was > 64 µg/mL and the MIC (PAM4883 producing GIM-1) was 8 µg/mL (≈ 16.6 µM). The MIC50 ([2]; CRE (N = 507)) was > 64 µg/mL, the MIC90 ([2]; CRE (N = 507)) was > 64 µg/mL and the MIC50 ([2]; KPC (N = 193)) was > 64 µg/mL. The MIC90 ([2]; KPC (N = 193)) was > 64 µg/mL, the MIC50 ([2]; MBL (N = 168)) was > 64 µg/mL and the MIC90 ([2]; MBL (N = 168)) was > 64 µg/mL. For the same molecule, the MIC50 ([2]; Non-CP CRE (N = 50)) was > 64 µg/mL, the MIC90 ([2]; Non-CP CRE (N = 50)) was > 64 µg/mL and the MIC50 ([2]; OXA-48-like (N = 96)) was > 64 µg/mL. The MIC90 ([2]; OXA-48-like (N = 96)) was > 64 µg/mL, the MIC (PAM4744 producing SME-2) was 0.5 µg/mL (≈ 1.04 µM) and the MIC [3] was 8 µg/mL (≈ 16.6 µM). The MIC50 [4] was 16 µg/mL (≈ 33.3 µM), the MIC90 [4] was > 64 µg/mL and the MIC (PAM4827 producing OXA-1) was 1 µg/mL (≈ 2.08 µM). For the same molecule, the MIC (PAM4745 producing P99) was 8 µg/mL (≈ 16.6 µM), the MIC [5] was 0.5 µg/mL (≈ 1.04 µM) and the MIC (PAM4792 producing OXA-2) was 0.5 µg/mL (≈ 1.04 µM). The MIC (PAM4175 (no β-lactamase)) was 0.25 µg/mL (≈ 0.52 µM) and the MIC (PAM4179 producing NDM-1) was > 64 µg/mL.
For `C[C@@H](O)[C@H]1C(=O)N2C(C(=O)O)=C(S[C@@H]3CN[C@H](C(=O)N(C)C)C3)[C@H](C)[C@H]12` [MEM, meropenem], the MIC (PAM4186 producing CMY-2) was 0.25 µg/mL (≈ 0.652 µM), the MIC [1] was 0.25 µg/mL (≈ 0.652 µM) and the MIC (PAM4908 producing VEB-1) was 0.5 µg/mL (≈ 1.3 µM). For the same molecule, the MIC (PAM4890 producing IMP-19) was 1 µg/mL (≈ 2.61 µM), the MIC (PAM4135 producing KPC-2) was 32 µg/mL (≈ 83.4 µM) and the MIC (PAM4883 producing GIM-1) was 32 µg/mL (≈ 83.4 µM). For the same molecule, the MIC50 ([2]; CRE (N = 507)) was 0.5 µg/mL, the MIC90 ([2]; CRE (N = 507)) was > 64 µg/mL and the MIC50 ([2]; KPC (N = 193)) was 16 µg/mL. The MIC90 ([2]; KPC (N = 193)) was > 64 µg/mL, the MIC50 ([2]; MBL (N = 168)) was 64 µg/mL and the MIC90 ([2]; MBL (N = 168)) was > 64 µg/mL. It also gave an MIC50 ([2]; Non-CP CRE (N = 50)) of 4 µg/mL, an MIC90 ([2]; Non-CP CRE (N = 50)) of 16 µg/mL and an MIC50 ([2]; OXA-48-like (N = 96)) of 16 µg/mL. It also gave an MIC90 ([2]; OXA-48-like (N = 96)) of 64 µg/mL, an MIC (PAM4744 producing SME-2) of 8 µg/mL (≈ 20.9 µM) and an MIC [3] of 0.25 µg/mL (≈ 0.652 µM). The MIC50 [4] was ≤ 0.03 µg/mL, the MIC90 [4] was 0.06 µg/mL (≈ 0.156 µM) and the MIC (PAM4827 producing OXA-1) was ≤ 0.06 µg/mL. For the same molecule, the MIC (PAM4745 producing P99) was 1 µg/mL (≈ 2.61 µM), the MIC [5] was 0.125 µg/mL (≈ 0.326 µM) and the MIC (PAM4792 producing OXA-2) was 2 µg/mL (≈ 5.22 µM). The MIC (PAM4175 (no β-lactamase)) was 0.125 ^ a and the MIC (PAM4179 producing NDM-1) was 32 µg/mL (≈ 83.4 µM).
`NCCN[C@H]1CC[C@H](CC(=O)N[C@H]2Cc3cccc(C(=O)O)c3OB2O)CC1` [Taniborbactam, taniborbactam] was tested, and the IC50 (VIM-1 (lysate of KP1015); KP1015, VIM-1, imipenem cleavage, read-out: IC50 of β-lactamase inhibition in cell lysates) was 190 ± 10 nM, the Ki (PDC1) was 22 nM and the Ki (CTX-M-14) was 1.2 ± 0.5 nM. The Ki (P99) was 2.4 ± 0.5 nM, the Ki (OXA-23) was > 20000 nM and the Ki (CTX-M-15) was 2.6 ± 0.1 nM.
Work on `O=C(O)c1c(F)ccc2c1OB(O)[C@@H]1C[C@H]21` [Xeruborbactam, xeruborbactam] yielded an IC50 (VIM-1 (lysate of KP1015)) of 250 ± 20 nM, a Ki (PDC1) of 14 nM and a Ki (CTX-M-14) of 0.29 ± 0.06 nM. The Ki (P99) was 8 nM and 8.5 nM, the Ki (OXA-23) was 0.74 ± 0.28 nM and the Ki (CTX-M-15) was 0.37 ± 0.01 nM.

Reference: article PMC10648875 (Antimicrobial Agents and Chemotherapy, 2023)
